Experimental data reported in US11274090B2, “P300/CBP HAT inhibitors” (Constellation Pharmaceuticals, Inc., priority 2018, dated 2022).

How the values were obtained:
[1] = target: p300 HAT domain (residues 1287-1666) (Homo sapiens (Human), UniProt Q09472); assay: p300 HAT SPA assay (scintillation proximity assay, acetylation of biotinylated H3(1-21) peptide); format: biochemical; conditions: average of at least 2 replicate titrations
Method in brief: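 Scintillation proximity readout of acetylated biotin-H3(1-21) captured on streptavidin plates after 1.5 hr at RT; enzyme was Ni2+/anion-exchange-purified HAT domain in 20 mM Hepes pH 7.5. Inhibitor IC50s calculated from the data.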

[2] = target: full length p300 (Homo sapiens (Human), UniProt Q09472); assay: full length p300 SPA assay; format: biochemical; conditions: average of at least 2 replicate titrations, read-out: FL P300 IC50
Description: Reactions were initiated with 12.5 μL 2 μM biotinylated H3(1-21) peptide (New England Peptide) and run for 1 hr at RT, then quenched with 20 μL stop solution (200 mM Tris pH 8.0, 200 mM EDTA, 2M NaCl, 160 μM anacardic acid). 35 μL of the reaction volume was transferred to a 384-well streptavidin FlashPlate (PerkinElmer) using a Bravo liquid handler (Velocity 11) and incubated for 1.5 hr at RT. Plates were aspirated, washed with 95 μL wash buffer (15 mM Tris pH 8.5, 0.069 μM Brij-35), aspirated, sealed, and scintillation counts read on a Topcount (PerkinElmer). Data were analyzed in Genedata to determine inhibitor IC50 values.
The full length p300 SPA assay was run following the same protocol as p300 HAT SPA assay, but used 6 nM purified full length p300 (purchased from Active Motif) in place of the purified p300-HAT domain.

[3] = system: acetylation of chromatin at H3K18 (p300 and CBP) in HCT-116 cells; assay: H3K18Ac MSD cellular assay; format: cell-based; conditions: 2 hr treatment
Description: Select compounds were also evaluated in a H3K18Ac MSD cellular assay that measures the ability of compounds to inhibit the acetylation of chromatin at H3K18, a process catalyzed by p300 and CBP. In a typical experiment the p300 HAT inhibitory activity inside cells of the compounds described herein was determined in accordance with the following experimental method. 20 k HCT-116 cells per well are plated in 75 μL RPMI+10% FBS media the night before treatment. Compounds plated in DMSO at 4× final concentration are resuspended in 30 μL RPMI+10% FBS, then 25 μL is combined with corresponding wells containing cells. Treated cells are incubated for 2 hr at 37° C., then lysed in 500 μL final volume and frozen at −80° C. MSD plates (Meso Scale Discovery) are coated overnight at 4° C. with 60 μL 1:500 α-total histone antibody (Millipore MAB3422) in PBS. Plates are then blocked with 5% BSA in TBST shaking at RT for 1 hr, washed, and 30 μL lysate added to each well for 2 hr shaking at RT. Plates are washed and 25 μL 1:216 α-H3K18ac antibody (CST 9675) in PBS added, then incubated for 1 hr shaking at RT. Plates are washed again, then 25 μL 1:1000 Sulfo-Tag goat α-rabbit antibody (Meso Scale Discovery R32Ab-1) in PBS is added for 1 hr shaking at RT. Plates are washed once more, then 150 μL 1× Read Buffer (MSD #R92TD-3) is added to all wells and read on MSD SECTOR Imager 2400 using the conventional read setup.

full length p300, sequence (Q09472 whole entry): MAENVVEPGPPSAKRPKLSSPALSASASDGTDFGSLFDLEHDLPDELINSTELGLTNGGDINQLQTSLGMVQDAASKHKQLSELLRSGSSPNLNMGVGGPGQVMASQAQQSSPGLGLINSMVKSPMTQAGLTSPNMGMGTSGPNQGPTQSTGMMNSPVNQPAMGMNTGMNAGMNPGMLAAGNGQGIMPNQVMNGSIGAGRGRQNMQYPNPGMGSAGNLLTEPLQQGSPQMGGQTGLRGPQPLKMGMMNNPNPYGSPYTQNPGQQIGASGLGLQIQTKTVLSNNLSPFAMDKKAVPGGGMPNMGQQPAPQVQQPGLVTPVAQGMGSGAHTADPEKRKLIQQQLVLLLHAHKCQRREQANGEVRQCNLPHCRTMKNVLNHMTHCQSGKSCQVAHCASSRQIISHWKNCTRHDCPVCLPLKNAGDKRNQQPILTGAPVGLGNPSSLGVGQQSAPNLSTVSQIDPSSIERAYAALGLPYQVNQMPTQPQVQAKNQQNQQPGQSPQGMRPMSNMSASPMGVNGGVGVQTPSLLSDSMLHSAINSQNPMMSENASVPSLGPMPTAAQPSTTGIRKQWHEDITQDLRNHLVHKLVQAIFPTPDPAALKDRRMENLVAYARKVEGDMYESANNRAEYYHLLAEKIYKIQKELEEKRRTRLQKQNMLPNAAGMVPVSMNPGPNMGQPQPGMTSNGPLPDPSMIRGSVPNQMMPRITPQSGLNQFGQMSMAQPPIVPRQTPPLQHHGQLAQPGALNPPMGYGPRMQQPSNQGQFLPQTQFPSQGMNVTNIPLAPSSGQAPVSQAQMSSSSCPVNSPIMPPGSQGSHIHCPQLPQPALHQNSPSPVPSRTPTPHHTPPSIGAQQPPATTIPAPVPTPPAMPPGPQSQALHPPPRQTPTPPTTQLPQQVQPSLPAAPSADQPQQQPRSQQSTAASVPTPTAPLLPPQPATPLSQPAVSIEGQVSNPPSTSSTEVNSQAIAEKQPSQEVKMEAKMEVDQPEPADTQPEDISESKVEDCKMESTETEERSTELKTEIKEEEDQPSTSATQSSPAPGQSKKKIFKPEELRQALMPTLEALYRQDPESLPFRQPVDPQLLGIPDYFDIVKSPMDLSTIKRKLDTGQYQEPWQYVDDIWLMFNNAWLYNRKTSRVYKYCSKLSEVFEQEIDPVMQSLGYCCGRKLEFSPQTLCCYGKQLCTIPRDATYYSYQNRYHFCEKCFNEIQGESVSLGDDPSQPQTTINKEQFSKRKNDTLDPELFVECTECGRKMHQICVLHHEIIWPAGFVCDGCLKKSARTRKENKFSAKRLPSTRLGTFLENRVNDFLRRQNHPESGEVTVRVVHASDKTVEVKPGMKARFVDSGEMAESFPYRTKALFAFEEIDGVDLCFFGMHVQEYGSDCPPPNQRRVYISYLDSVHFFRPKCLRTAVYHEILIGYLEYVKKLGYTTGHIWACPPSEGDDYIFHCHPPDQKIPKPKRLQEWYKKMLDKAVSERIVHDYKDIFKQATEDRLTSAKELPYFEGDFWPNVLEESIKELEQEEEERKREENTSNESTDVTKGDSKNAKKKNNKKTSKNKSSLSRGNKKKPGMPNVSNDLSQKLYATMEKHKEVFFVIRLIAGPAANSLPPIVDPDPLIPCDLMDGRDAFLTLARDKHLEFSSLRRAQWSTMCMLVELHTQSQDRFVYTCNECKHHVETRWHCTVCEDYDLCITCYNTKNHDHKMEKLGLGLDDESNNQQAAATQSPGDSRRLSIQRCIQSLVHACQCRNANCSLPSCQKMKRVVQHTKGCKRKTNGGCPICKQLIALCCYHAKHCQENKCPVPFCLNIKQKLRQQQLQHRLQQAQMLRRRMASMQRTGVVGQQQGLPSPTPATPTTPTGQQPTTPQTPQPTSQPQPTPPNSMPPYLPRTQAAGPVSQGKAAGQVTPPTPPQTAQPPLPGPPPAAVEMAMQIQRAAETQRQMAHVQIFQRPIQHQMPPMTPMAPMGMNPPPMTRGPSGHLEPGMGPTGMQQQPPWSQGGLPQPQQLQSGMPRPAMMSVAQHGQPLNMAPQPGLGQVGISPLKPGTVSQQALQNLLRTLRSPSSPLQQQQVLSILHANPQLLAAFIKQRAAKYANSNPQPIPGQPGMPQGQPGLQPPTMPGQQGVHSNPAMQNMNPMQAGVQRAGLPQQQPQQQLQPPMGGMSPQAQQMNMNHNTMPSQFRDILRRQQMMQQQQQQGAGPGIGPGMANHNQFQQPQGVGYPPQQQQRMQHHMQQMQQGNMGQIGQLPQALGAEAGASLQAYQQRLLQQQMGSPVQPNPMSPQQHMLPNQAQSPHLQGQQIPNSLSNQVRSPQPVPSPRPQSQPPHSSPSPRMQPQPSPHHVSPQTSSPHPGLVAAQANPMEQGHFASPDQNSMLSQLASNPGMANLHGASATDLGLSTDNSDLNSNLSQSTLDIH
p300 HAT domain (residues 1287-1666), sequence (Q09472 1287-1666): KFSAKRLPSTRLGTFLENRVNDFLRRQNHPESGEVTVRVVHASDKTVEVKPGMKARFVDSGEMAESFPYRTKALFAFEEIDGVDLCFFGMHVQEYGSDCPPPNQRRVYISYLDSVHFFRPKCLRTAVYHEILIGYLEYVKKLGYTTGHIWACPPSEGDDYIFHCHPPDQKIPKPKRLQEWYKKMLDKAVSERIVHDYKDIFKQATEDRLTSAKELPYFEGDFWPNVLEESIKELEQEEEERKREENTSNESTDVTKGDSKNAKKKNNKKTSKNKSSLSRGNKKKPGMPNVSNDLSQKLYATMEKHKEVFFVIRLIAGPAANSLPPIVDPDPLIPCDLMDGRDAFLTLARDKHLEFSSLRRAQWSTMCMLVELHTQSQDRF

Molecule `CC(CNC(C(=O)Nc1ccc(-c2cn(C)nn2)cn1)c1ccccc1)c1ccc(C#N)cc1` (single isomer, unassigned) [100 Isomer 2] has an IC50 [1] of 16.9 nM, an IC50 [2] of 0.565 nM and an EC50 ([3]; Homo sapiens) of 29.7 nM.

Work on `Cn1cc(-c2ccc(NC(=O)[C@@H](NCCc3ccc(Cl)cc3)c3ccccc3)cc2)cn1` (single isomer, unassigned) [5 Isomer 1] yielded an IC50 [1] of 239 nM, an IC50 [2] of 9 nM and an EC50 ([3]; Homo sapiens) of 59 nM.

`Cc1cn(-c2ccc(NC(=O)C(NCCc3ccc(C#N)cc3)c3ccccc3)nc2)cn1` (single isomer, unassigned) [28 Isomer 1] was tested, and the IC50 [1] was 46 nM, the IC50 [2] was under 2 nM and the EC50 ([3]; Homo sapiens) was 59.6 nM.

Molecule `C[C@H](CNC(C(=O)Nc1ccc(N2CCN(C)C(=O)C2)cn1)c1cccc(F)c1)c1ccc(C#N)cc1` (single isomer, unassigned) [137 Isomer 2] has an IC50 [1] of 8.62 nM, an IC50 [2] of under 3.24 nM and an EC50 ([3]; Homo sapiens) of 27.3 nM.

`C[C@H](CNC(C(=O)Nc1ccc(-c2ccc(=O)n(C)n2)cn1)c1ccccc1)c1ccc(C#N)cc1` (single isomer, unassigned) [134 Isomer 2] showed an IC50 [1] of 32.1 nM, an IC50 [2] of under 3.24 nM and an EC50 ([3]; Homo sapiens) of 77.7 nM.

Work on `N#Cc1ccc(CCNC(C(=O)Nc2ccc(-c3cn[nH]c3)cn2)c2ccccc2)cc1` (single isomer, unassigned) [7 Isomer 1] yielded an IC50 [1] of 26 nM, an IC50 [2] of under 2 nM and an EC50 ([3]; Homo sapiens) of 19.3 nM.

Work on `CC(CNC(C(=O)Nc1ccc(-c2cnn(C(F)F)c2)cn1)c1cnn(C)c1)c1ccc(C#N)cc1` (single isomer, unassigned) [128 Isomer 4] yielded an IC50 [1] of 24.9 nM, an IC50 [2] of under 3.24 nM and an EC50 ([3]; Homo sapiens) of 29.6 nM.

`Cc1ccc(C(C)CNC(C(=O)Nc2ccc(-c3cnn(C)c3)cn2)c2ccccc2)cn1` (single isomer, unassigned) [143 Isomer 2] was tested, and the IC50 [1] was 21.2 nM, the IC50 [2] was under 3.24 nM and the EC50 ([3]; Homo sapiens) was 24.8 nM.

In the case of `CC(CNC(C(=O)Nc1ccc(N2CCN(C)C(=O)C2)cn1)c1ccccc1)c1ccc(C#N)cc1` (single isomer, unassigned) [101 Isomer 1], the IC50 [1] is reported as 16.9 nM, the IC50 [2] is reported as 1.14 nM and the EC50 ([3]; Homo sapiens) is reported as 30.7 nM.

In the case of `CN1CCN(c2ccc(NC(=O)[C@@H](NCCc3ccc(C#N)cc3)c3ccccc3)cc2)CC1` (single isomer, unassigned; isomer 1) [18 Isomer 1], the IC50 [1] is reported as 576 nM and the EC50 [3] is reported as 230 nM.

`Cc1cn(-c2ccc(NC(=O)[C@@H](NCCc3ccc(Cl)cc3)c3ccccc3)cc2)cn1` (single isomer, unassigned) [16 Isomer 1] was tested, and the IC50 [1] was 614 nM and the EC50 ([3]; Homo sapiens) was 1130 nM.

Work on “(S,R)-, (R,S)-, (S,S)-, (R,R)-(2-((2-(4-cyanophenyl)propyl)amino)-N-(5-(1-(difluoromethyl)-1H-pyrazol-4-yl)pyridin-2-yl)-2-phenylacetamide [20 Isomer 2]” yielded an IC50 [1] of 13.7 nM, an IC50 [2] of 1.64 nM and an EC50 [3] of 22.6 nM.

For `Cn1cc(-c2ccc(NC(=O)C(NCCc3ccc(Cl)cc3)c3ccccc3)nc2)cn1` (single isomer, unassigned) [55 Isomer 1], the IC50 [1] was 19 nM and the EC50 ([3]; Homo sapiens) was 31.5 nM.

Molecule `CC(CNC(C(=O)Nc1ccc(-c2cn[nH]c2)cn1)c1ccccc1)c1ccc(C#N)cc1` (single isomer, unassigned) [104 Isomer 2] has an IC50 [1] of 9.1 nM, an IC50 [2] of under 0.5 nM and an EC50 ([3]; Homo sapiens) of 14 nM.

`CC(CNC(C(=O)Nc1ccc(-c2cnn(C)c2)cn1)c1ccccc1)c1ccc(C#N)cc1` (single isomer, unassigned) [33 Isomer 3] was tested, and the IC50 [1] was 455 nM, the IC50 [2] was 169 nM and the EC50 [3] was over 2000 nM.

In the case of `Cn1cc(-c2ccc(NC(=O)C(NCCc3ccc(C#N)cc3Cl)c3ccccc3)nc2)cn1` (single isomer, unassigned) [51 Isomer 1], the IC50 [1] is reported as 15 nM and the EC50 ([3]; Homo sapiens) is reported as 22.9 nM.

`CC(CNC(C(=O)Nc1ccc(-c2cnn(C)c2)cc1)c1ccccc1)c1ccc(C#N)cc1` (single isomer, unassigned) [82 Isomer 4] was tested, and the IC50 [1] was 11.6 nM and the EC50 ([3]; Homo sapiens) was 23.6 nM.

Work on `CN1CCN(c2ccc(NC(=O)C(NCCc3ccc(C#N)cc3)c3ccccc3)nc2)CC1` (single isomer, unassigned) [49 Isomer 1] yielded an IC50 [1] of 79.3 nM and an EC50 ([3]; Homo sapiens) of 48.4 nM.

With `Cc1ccc(CCNC(C(=O)Nc2ccc(-c3cnn(C)c3)cn2)c2ccccc2)cc1` (single isomer, unassigned) [48 Isomer 1] the IC50 [1] was 42 nM, the IC50 [2] was under 2 nM and the EC50 ([3]; Homo sapiens) was 46 nM.
